For 26 compounds, IC50 results are on record in patent publication US8012975B2, “Antitumoral analogs of ET-743” (Pharma Mar, S.A., priority 2000, dated 2011).

As a reminder, the IC50 is the concentration that inhibits the measured activity by half.

The subject of one experiment is P-388. Briefly: Cytotoxic activity IC50, P-388. Conditions: Mus musculus, P388, read-out: CYTOTOXIC ACTIVITIY IC50 (μM) P-388.
In another experiment the test system is A-549. Briefly: Cytotoxic activity IC50, A-549. The note with it: Homo sapiens, A549, read-out: CYTOTOXIC ACTIVITIY IC50 (μM) A-549, A-549.
The test system of a further experiment is HT-29. Briefly: Cytotoxic activity IC50, HT-29. The note with it: Homo sapiens, HT-29, read-out: CYTOTOXIC ACTIVITIY IC50 (μM) HT-29, HT-29.
Another experiment concerns MEL-28. Briefly: Cytotoxic activity IC50, MEL-28. Conditions: Homo sapiens, SK-MEL-28, read-out: CYTOTOXIC ACTIVITIY IC50 (μM) MEL-28, MEL-28.
The test system of another experiment is DU-145. Briefly: Cytotoxic activity IC50, DU-145. Conditions: Homo sapiens, DU-145, read-out: CYTOTOXIC ACTIVITIY IC50 (μM) DU-145, DU-145.

As to `C/C=C/C(=O)N[C@@H](C)C(=O)NC[C@H]1c2c(c(OC(C)=O)c(C)c3c2OCO3)CC2[C@H]3c4c(cc(C)c(OC)c4O)C[C@@H]([C@H](O)N21)N3C` (stereo partly shown), the IC50 was found to be 0.001 µM in the experiment with P-388; 0.007 µM in the experiment with A-549; 0.001 µM with HT-29; 0.001 µM with MEL-28; 0.007 µM with DU-145.
Take `C=CCOc1c(C)c2c(c3c1CC1[C@H]4c5c(cc(C)c(OC)c5OCOC)C[C@@H]([C@H](C#N)N1[C@H]3COC(=O)CCC)N4C)OCO2` (stereo partly shown): the IC50 in the experiment with P-388, with A-549, with HT-29, in the experiment on MEL-28 and with DU-145 was > 1 µM in each case.
As for `C=CCOc1c(C)c2c(c3c1CC1[C@H]4c5c(cc(C)c(OC)c5OCOC)C[C@@H]([C@H](C#N)N1[C@H]3COC(=O)/C=C/c1cccc(C(F)(F)F)c1)N4C)OCO2` (stereo partly shown), the half-maximal inhibitory concentration (IC50) with P-388, in the experiment with A-549, in the experiment on HT-29, in the experiment with MEL-28 and with DU-145 was > 1 µM in each case.
As to `C=CCOc1c(C)c2c(c3c1CC1[C@H]4c5c(cc(C)c(OC)c5OCOC)C[C@@H]([C@H](C#N)N1[C@H]3COC(=O)/C=C/c1ccccc1)N4C)OCO2` (stereo partly shown), the half-inhibitory concentration (IC50) in the experiment with P-388, in the experiment with A-549, with HT-29, in the experiment on MEL-28 and with DU-145 was 0.1 µM each time.
On to `CCCC(=O)OC[C@H]1c2c(c(O)c(C)c3c2OCO3)CC2[C@H]3c4c(cc(C)c(OC)c4OCOC)C[C@@H]([C@H](C#N)N21)N3C` (stereo partly shown), for which the concentration for half-maximal inhibition (IC50) in the experiment on P-388, with A-549, with HT-29, in the experiment on MEL-28 and with DU-145 was 0.1 µM throughout.
For the compound `COCOc1c(OC)c(C)cc2c1[C@@H]1C3Cc4c(O)c(C)c5c(c4[C@H](COC(=O)/C=C/c4cccc(C(F)(F)F)c4)N3[C@@H](C#N)[C@H](C2)N1C)OCO5` (stereo partly shown), the IC50 in the experiment on P-388, in the experiment with A-549, in the experiment on HT-29, in the experiment on MEL-28 and with DU-145 was 0.1 µM each time.
On to `COCOc1c(OC)c(C)cc2c1[C@@H]1C3Cc4c(O)c(C)c5c(c4[C@H](COC(=O)CCc4ccccc4)N3[C@@H](C#N)[C@H](C2)N1C)OCO5` (stereo partly shown), for which the IC50 in the experiment on P-388, in the experiment with A-549, in the experiment on HT-29, in the experiment with MEL-28 and in the experiment on DU-145 was 0.1 µM each time.
As to `COCOc1c(OC)c(C)cc2c1[C@@H]1C3Cc4c(O)c(C)c5c(c4[C@H](COC(=O)/C=C/c4ccccc4)N3[C@@H](C#N)[C@H](C2)N1C)OCO5` (stereo partly shown), the IC50 in the experiment on P-388, in the experiment with A-549, with HT-29, in the experiment on MEL-28 and with DU-145 was 0.1 µM throughout.
`COCOc1c(OC)c(C)cc2c1[C@@H]1C3Cc4c(OC(C)=O)c(C)c5c(c4[C@H](COC(=O)/C=C/c4cccc(C(F)(F)F)c4)N3[C@@H](C#N)[C@H](C2)N1C)OCO5` (stereo partly shown): the concentration for half-maximal inhibition (IC50) in the experiment with P-388, with A-549, in the experiment with HT-29, in the experiment with MEL-28 and in the experiment with DU-145 was 0.6 µM throughout.
On to `COCOc1c(OC)c(C)cc2c1[C@@H]1C3Cc4c(OC(C)=O)c(C)c5c(c4[C@H](COC(=O)CCc4ccccc4)N3[C@@H](C#N)[C@H](C2)N1C)OCO5` (stereo partly shown), for which the IC50 in the experiment with P-388, with A-549, in the experiment on HT-29, in the experiment with MEL-28 and in the experiment on DU-145 was 0.1 µM throughout.
`COc1c(C)cc2c(c1O)[C@@H]1C3Cc4c(OC(C)=O)c(C)c5c(c4[C@H](COC(=O)/C=C/c4cccc(C(F)(F)F)c4)N3[C@@H](C#N)[C@H](C2)N1C)OCO5` (stereo partly shown): the IC50 in the experiment with P-388, in the experiment with A-549, in the experiment on HT-29, in the experiment with MEL-28 and in the experiment on DU-145 was 0.001 µM each time.
On to `C=CCOC(=O)Oc1c(C)c2c(c3c1CC1[C@H]4c5c(cc(C)c(OC)c5OCOC)C[C@@H]([C@H](C#N)N1[C@H]3CNC(=O)[C@H](C)NC(=O)OC(C)(C)C)N4C)OCO2` (stereo partly shown), for which the IC50 with P-388, with A-549, with HT-29, with MEL-28 and with DU-145 was 0.06 µM each time.
With `C=CCOC(=O)Oc1c(C)c2c(c3c1CC1[C@H]4c5c(cc(C)c(OC)c5O)C[C@@H]([C@H](C#N)N1[C@H]3CNC(=O)[C@H](C)N)N4C)OCO2` (stereo partly shown), the IC50 with P-388, with A-549, with HT-29, with MEL-28 and in the experiment on DU-145 was 0.001 µM throughout.
Take `C=CCOC(=O)Oc1c(C)c2c(c3c1CC1[C@H]4c5c(cc(C)c(OC)c5O)C[C@@H]([C@H](C#N)N1[C@H]3CNC(=O)[C@H](C)NC(=S)Nc1ccccc1)N4C)OCO2` (stereo partly shown): the IC50 in the experiment with P-388, in the experiment with A-549, in the experiment with HT-29, with MEL-28 and in the experiment with DU-145 was 0.001 µM in each case.
With `C=CCOC(=O)Oc1c(C)c2c(c3c1CC1[C@H]4c5c(cc(C)c(OC)c5O)C[C@@H]([C@H](C#N)N1[C@H]3CN)N4C)OCO2` (stereo partly shown), the 50% inhibitory concentration (IC50) in the experiment on P-388, with A-549, in the experiment on HT-29, with MEL-28 and with DU-145 was 0.06 µM in each case.
Turning to `C=CCOC(=O)Oc1c(C)c2c(c3c1CC1[C@H]4c5c(cc(C)c(OC)c5O)C[C@@H]([C@H](C#N)N1[C@H]3CNC(=O)OCC(Cl)(Cl)Cl)N4C)OCO2` (stereo partly shown), the IC50 in the experiment with P-388, in the experiment with A-549, with HT-29, in the experiment on MEL-28 and in the experiment on DU-145 was 0.006 µM each time.
Regarding `C=CCOC(=O)Oc1c(C)c2c(c3c1CC1[C@H]4c5c(cc(C)c(OC)c5OCOC)C[C@@H]([C@H](C#N)N1[C@H]3CNC(=O)OCC(Cl)(Cl)Cl)N4C)OCO2` (stereo partly shown), the IC50 in the experiment with P-388, in the experiment on A-549, in the experiment with HT-29, in the experiment with MEL-28 and in the experiment on DU-145 was 0.1 µM each time.
`COc1c(C)cc2c(c1O)[C@@H]1C3Cc4c(O)c(C)c5c(c4[C@H](CNC(=O)/C=C/c4ccccc4)N3[C@@H](C#N)[C@H](C2)N1C)OCO5` (stereo partly shown): the IC50 in the experiment on P-388, with A-549, in the experiment on HT-29, in the experiment on MEL-28 and with DU-145 was 0.001 µM each time.
On to `C=CCOC(=O)Oc1c(C)c2c(c3c1CC1[C@H]4c5c(cc(C)c(OC)c5OCOC)C[C@@H]([C@H](O)N1[C@H]3CNC(=O)CCc1ccccc1)N4C)OCO2` (stereo partly shown), for which the half-maximal inhibitory concentration (IC50) in the experiment with P-388, in the experiment with A-549, in the experiment with HT-29, in the experiment on MEL-28 and in the experiment on DU-145 was 0.1 µM in each case.
As to `COCOc1c(OC)c(C)cc2c1[C@@H]1C3Cc4c(O)c(C)c5c(c4[C@H](CNC(=O)CCc4ccccc4)N3[C@@H](C#N)[C@H](C2)N1C)OCO5` (stereo partly shown), the half-inhibitory concentration (IC50) in the experiment with P-388, in the experiment on A-549, in the experiment with HT-29, in the experiment on MEL-28 and in the experiment on DU-145 was 0.1 µM throughout.
As to `COCOc1c(OC)c(C)cc2c1[C@@H]1C3Cc4c(OC(=O)C(F)(F)F)c(C)c5c(c4[C@H](CNC(=O)CCc4ccccc4)N3[C@@H](C#N)[C@H](C2)N1C)OCO5` (stereo partly shown), the IC50 in the experiment on P-388, in the experiment on A-549, in the experiment with HT-29, in the experiment with MEL-28 and in the experiment with DU-145 was 0.5 µM in each case.
Consider `COCOc1c(OC)c(C)cc2c1[C@@H]1C3Cc4c(OC(=O)CCl)c(C)c5c(c4[C@H](CNC(=O)CCc4ccccc4)N3[C@@H](C#N)[C@H](C2)N1C)OCO5` (stereo partly shown), for which the IC50 in the experiment with P-388, in the experiment on A-549, in the experiment on HT-29, with MEL-28 and in the experiment with DU-145 was 0.1 µM throughout.
On to `COCOc1c(OC)c(C)cc2c1[C@@H]1C3Cc4c(OC(=O)CCCl)c(C)c5c(c4[C@H](CNC(=O)CCc4ccccc4)N3[C@@H](C#N)[C@H](C2)N1C)OCO5` (stereo partly shown), for which the IC50 in the experiment on P-388, with A-549, in the experiment on HT-29, in the experiment with MEL-28 and in the experiment with DU-145 was 0.05 µM throughout.
For the compound `COc1c(C)cc2c(c1O)[C@@H]1C3Cc4c(OC(=O)C(F)(F)F)c(C)c5c(c4[C@H](CNC(=O)CCc4ccccc4)N3[C@@H](C#N)[C@H](C2)N1C)OCO5` (stereo partly shown), the half-maximal inhibitory concentration (IC50) in the experiment on P-388, in the experiment with A-549, with HT-29, in the experiment on MEL-28 and in the experiment on DU-145 was 0.01 µM throughout.
`COc1c(C)cc2c(c1O)[C@@H]1C3Cc4c(OC(=O)CCl)c(C)c5c(c4[C@H](CNC(=O)CCc4ccccc4)N3[C@@H](C#N)[C@H](C2)N1C)OCO5` (stereo partly shown): the half-maximal inhibitory concentration (IC50) with P-388, in the experiment with A-549, in the experiment with HT-29, with MEL-28 and in the experiment on DU-145 was 0.001 µM in each case.
Regarding `COc1c(C)cc2c(c1O)[C@@H]1C3Cc4c(OC(=O)CCCl)c(C)c5c(c4[C@H](CNC(=O)CCc4ccccc4)N3[C@@H](C#N)[C@H](C2)N1C)OCO5` (stereo partly shown), the IC50 in the experiment on P-388, in the experiment on A-549, with HT-29, in the experiment on MEL-28 and in the experiment on DU-145 was 0.01 µM each time.
